Assay results from US10470986B2, “Resorcinol compounds for dermatological use” (Conopco, Inc., priority 2013, dated 2019).

How the values were obtained:
[1] = system: mushroom tyrosinase (Sigma T3824); experiment: Mushroom Tyrosinase Inhibition Assay; type: biochemical; settings: 10 μM compound, 300 μM L-Tyrosine, 84 units/mL enzyme, pH 6.5, 15 min at room temperature
Procedure: 10 μM compound, 300 μM L-Tyrosine, and 84 units/mL of mushroom tyrosinase (Sigma T3824) were combined into 0.05 M potassium monophosphate buffer at pH=6.5, and incubated for 15 min at room temperature. Absorbance was recorded at 490 nm. % tyrosinase inhibition was calculated as follows: (AbsDMSO−Abscmpd)/AbsDMSO×100. The assay was performed for various compounds described herein, as well as for control compounds 4-ethyl resorcinol (4ER), 4-isopropylresorcinol (4IPR), 4-hexylresorcinol (4HR), 4-cyclohexylresorcinol (4CHR), 5-methylresorcinol (5MR), kojic acid (KA), and hydroquinone (HQ), structures of which are shown below.

MelanoDerm (Mel-300-B) = experiment: Mattek 3D Skin Equivalents, MelanoDerm (Mel-300-B) assay; type: cell-based, human; settings: every other day, 14 days
From the text: Many people at different stages of their life are concerned with the degree of pigmentation of their skin and may wish to reduce the skin darkening, or may wish to lighten or even-tone their natural skin color. The mechanism by which skin pigmentation is formed, melanogenesis, is particularly complex and schematically involves the following main steps: Tyrosine→L-Dopa→Dopaquinone→Dopachrome→Melanins. The first two reactions in this series are catalyzed by the enzyme tyrosinase. The activity of tyrosinase is promoted by the action of a-melanocyte stimulating hormone or UV rays. It is well established that a substance has a depigmenting effect if it acts directly on the vitality of the epidermal melanocytes where melanogenesis normally occurs and/or if it interferes with one of the stages in melanin biosynthesis. Pigmentation disorders can take a variety of forms like hyperpigmentation, hypopigmentation, and uneven pigmentation, and include but are not limited to melasma (mask of pregnancy or chloasma), liver spots (which often develop with age) and leukoderma such as vitiligo. […] The degree of pigmentation disorders of the skin in many cases increases with the age of the individuals. Because of the involvement of tyrosinase in melanogensis, tyrosinase inhibition assays are often used to screen potential skin lightening agents. Some mushroom tyrosinases (such as that from Agaricus bisporus) are homologous with mammalian tyrosinase, and mushroom tyrosinase is often used in inhibition assays due to its ready commercial availability. However, the enzyme inhibition assays may not be as good an indicator of activity as assays which are more similar to the intended clinical or cosmetic use, such as the MatTek Corporation's MelanoDerm™ Skin Model (a system which consists of normal, human-derived epidermal keratinocytes and melanocytes formed into a multilayered model of human epidermis).
MelanoDerm (Mel-300-B) assay was conducted according to the manufacturer's instruction (MatTek Corporation). Every other day, the test articles were administered into the EPI-100-NMM-113 culture medium, and positive control, 25 uL of 2% Kojic acid was applied topically. After 14 days, tissue viability and melanocyte morphology were visually verified and tissue melanin was extracted and quantitated against a standard curve. % melanin was calculated as follows: (MelaninDMSO−Melanincomp)/MelaninDMSO×100. The assay was performed for various compounds described herein, as well as for control compounds 4ER, 4IPR, 4HR, 4CHR, kojic acid, and hydroquinone.

B16F1 cells = experiment: B16 Melanin Assay; type: cell-based; settings: 1 mM Theophylline stimulated, 72 h, media absorbance 405 nm corrected for viability (Calcein-AM); compound concentration not stated
Procedure: After trypsinization, cells were seeded at 3,000 cells per well in a 96-well plate and allowed to attach overnight. 1 mM Theophylline was used to stimulate melanogenesis, and the compound of interest was added. […] (AbsDMSO/CalceinDMSO-[…]/CalceinDMSO×100. The assay was performed for various compounds described herein, as well as for control compounds 4ER, 4IPR, 4HR, 4CHR, 5MR kojic acid, and hydroquinone. Results are shown in Table 2.

Structure (SMILES)	Mushroom Tyrosinase (% remaining enzyme activity), % TYR Activity [1]	MatTek Assay (% Melanin), % Melanin 3D EpiDerm (MelanoDerm (Mel-300-B); 30 μM in culture medium)	B16 Media Melanin (% Melanin), % Melanin B16 (B16F1 cells)	MatTek Assay (% Melanin), % Melanin 3D EpiDerm (MelanoDerm (Mel-300-B); 10 μM in culture medium)	MatTek Assay (% Melanin), % Melanin 3D EpiDerm (MelanoDerm (Mel-300-B); positive control, 25 uL of 2% Kojic acid applied topically)
Oc1cc(O)c(Cc2ccccc2)c(C(F)(F)F)c1 [4,5BnTFMR, 2-Benzyl-1,5-dihydroxy-3-trifluoromethyl-benzene]	93%	75%	82%		
CCC(C)c1c(C)cc(O)cc1O (centres unmarked) [4,5sBMR, 4-sec-butyl-5-methylbenzene-1,3-diol]	100%	67%	76%	75%	
Cc1cc(O)cc(O)c1 [Compound 5MR, 5-methylresorcinol, reference compound]	100%		100%		
Oc1cc(O)c(C2CCCCC2)c(C(F)(F)F)c1 [4,5CHTFMR]	100%		65%	89%	
CCc1ccc(O)cc1O [Compound 4ER, 4-ethyl resorcinol, reference compound]	2%	61%	48%	84%	
CCCCCCc1c(C)cc(O)cc1O [4,5HMR, 4-hexyl-5-methylbenzene-1,3-diol]	10%	68%	78%	77%	
Cc1cc(O)cc(O)c1C(C)c1ccccc1 (centres unmarked) [4,5PEMR, 4-(1-phenylethyl)-5-methylbenzene-1,3-diol]		62%	87%	98%	
Cc1cc(O)cc(O)c1C1CC1 [4,5CPrMR, 4-cyclopropyl-5-methylbenzene-1,3-diol]	30%	82%	62%	99%	
Cc1cc(O)cc(O)c1CC(F)(F)F [4,5TFEMR, 4-(2,2,2-trifluoroethyl)-5-methylbenzene-1,3-diol]		72%	90%	81%	
Cc1cc(O)cc(O)c1CC1CCCC1 [4,5MCPMR, 4-cyclopentylmethyl-5-methylbenzene-1,3-diol]	32%	72%	90%	94%	
O=c1cc(CO)occ1O [Kojic Acid, kojic acid, reference compound]	84%	100%	100%	100%	75%
CCc1c(C)cc(O)cc1O [4,5EMR, 4-ethyl-5-methylbenzene-1,3-diol]	93%	79%	69%	102%	
Oc1ccc(C2CCCCC2)c(O)c1 [Compound 4CHR, 4-cyclohexylresorcinol, reference compound]	0%	36%	63%	65%	
Oc1ccc(O)cc1 [Hydroquinone, hydroquinone, reference compound]	100%	92%	100%	94%	
Oc1cc(O)c(C2CCCCC2)c(F)c1 [4,5CHFR, 4-cyclohexyl-5-fluorobenzene-1,3-diol]	1%	81%	51%	87%	
Cc1cc(O)cc(O)c1Cc1ccccc1 [4,5BnMR, 4-benzyl-5-methylbenzene-1,3-diol]	97%	61%	86%	82%	
Oc1cc(O)c(C2CCCCC2)c(F)c1 [4,5EFR, 4-cyclohexyl-5-fluorobenzene-1,3-diol]	3%		87%		
Cc1cc(O)cc(O)c1C(C)C [4,5IPMR, 4-isopropyl-5-methylbenzene-1,3-diol]		72%	71%	102%	
Cc1cc(O)cc(O)c1C1CCCCC1 [4,5CHMR, 4-cyclohexyl-5-methylbenzene-1,3-diol]	22%	44%	58%	66%	
CC(C)c1ccc(O)cc1O [Compound 4IPR, 4-isopropylresorcinol, reference compound]	1%	46%	77%	71%	
CCCCCCc1ccc(O)cc1O [Compound 4HR, 4-hexylresorcinol, reference compound]	1%	72%	71%	93%	
Cc1cc(O)cc(O)c1C1CCCC1 [4,5CPMR, 4-cyclopentyl-5-methylbenzene-1,3-diol]	71%	55%	61%	65%	
CCc1c(O)cc(O)cc1C(F)(F)F [4,5ETFMR, 2-Ethyl-1,5-dihydroxy-3-trifluoromethyl-benzene]		66%	68%	81%	
